Converted amounts (≈) assume the structure as drawn. Values belong to the compound of their own block, whether it stands above or below them.
Columns and labels:
S. aureus 9537 = test: Minimum Inhibitory Concentration against S. aureus 9537; assay type: cell-based; conditions: Staphylococcus aureus, Mueller-Hinton Broth, 10^-4 organism dilution, read-out: M.I.C. (Minimum Inhibitory Concentration)
Excerpt: (§1) Minimum Inhibitory Concentration Of
(§2) 5-deoxykanamycin A Against Various
(§3) Microorganisms (mcg./ml.)
(§4) ^a = 45% Antibiotic Assay Broth, 50% Mueller-Hinton Broth and 5%
(§5) serum. All others are Mueller-Hinton Broth.
(§6) ^b = 10^-3 Organism dilution. All others are 10^-4 organism

P. aerug. 20601 = test: Minimum Inhibitory Concentration against P. aerug. 20601; assay type: cell-based; conditions: Mueller-Hinton Broth, 10^-4 organism dilution, read-out: M.I.C. (Minimum Inhibitory Concentration)
Excerpt: as §1, §2, §3, §4, §5, §6

P. stuartii 20894 = test: Minimum Inhibitory Concentration against P. stuartii 20894; assay type: cell-based; conditions: Providencia stuartii, Mueller-Hinton Broth, 10^-3 organism dilution, read-out: M.I.C. (Minimum Inhibitory Concentration)
Excerpt: as §1, §2, §3, §4, §5, §6

S. pneum. 9585 = test: Minimum Inhibitory Concentration against S. pneum. 9585; assay type: cell-based; conditions: Mueller-Hinton Broth, 10^-4 organism dilution, read-out: M.I.C. (Minimum Inhibitory Concentration)
Excerpt: as §1, §2, §3, §4, §5, §6

E. coli 20683 = test: Minimum Inhibitory Concentration against E. coli 20683; assay type: cell-based; conditions: Escherichia coli, Mueller-Hinton Broth, 10^-3 organism dilution, read-out: M.I.C. (Minimum Inhibitory Concentration)
Excerpt: as §1, §2, §3, §4, §5, §6

S. aureus 20240 = test: Minimum Inhibitory Concentration against S. aureus 20240; assay type: cell-based; conditions: Staphylococcus aureus, Mueller-Hinton Broth, 10^-4 organism dilution, read-out: M.I.C. (Minimum Inhibitory Concentration)
Excerpt: as §1, §2, §3, §4, §5, §6

P. stuartii 21210 = test: Minimum Inhibitory Concentration against P. stuartii 21210; assay type: cell-based; conditions: Providencia stuartii, Mueller-Hinton Broth, 10^-4 organism dilution, read-out: M.I.C. (Minimum Inhibitory Concentration)
Excerpt: as §1, §2, §3, §4, §5, §6

E. cloacae 20364 = test: Minimum Inhibitory Concentration against E. cloacae 20364; assay type: cell-based; conditions: Enterobacter cloacae, Mueller-Hinton Broth, 10^-3 organism dilution, read-out: M.I.C. (Minimum Inhibitory Concentration)
Excerpt: as §1, §2, §3, §4, §5, §6

P. mirab. 9900 = test: Minimum Inhibitory Concentration against P. mirab. 9900; assay type: cell-based; conditions: Mueller-Hinton Broth, 10^-4 organism dilution, read-out: M.I.C. (Minimum Inhibitory Concentration)
Excerpt: as §1, §2, §3, §4, §5, §6

P. aerug. 20717 = test: Minimum Inhibitory Concentration against P. aerug. 20717; assay type: cell-based; conditions: Mueller-Hinton Broth, 10^-4 organism dilution, read-out: M.I.C. (Minimum Inhibitory Concentration)
Excerpt: as §1, §2, §3, §4, §5, §6

S. marc. 20019 = test: Minimum Inhibitory Concentration against S. marc. 20019; assay type: cell-based; conditions: Mueller-Hinton Broth, 10^-4 organism dilution, read-out: M.I.C. (Minimum Inhibitory Concentration)
Excerpt: as §1, §2, §3, §4, §5, §6

E. coli 9632 = test: Minimum Inhibitory Concentration against E. coli 9632; assay type: cell-based; conditions: Escherichia coli, Mueller-Hinton Broth, 10^-3 organism dilution, read-out: M.I.C. (Minimum Inhibitory Concentration)
Excerpt: as §1, §2, §3, §4, §5, §6

S. pyogenes 9604 = test: Minimum Inhibitory Concentration against S. pyogenes 9604; assay type: cell-based; conditions: Streptococcus pyogenes, 45% Antibiotic Assay Broth, 50% Mueller-Hinton Broth and 5% serum, 10^-3 organism dilution, read-out: M.I.C. (Minimum Inhibitory Concentration)
Excerpt: as §1, §2, §3, §4, §5, §6

K. pneum. 9977 = test: Minimum Inhibitory Concentration against K. pneum. 9977; assay type: cell-based; conditions: Mueller-Hinton Broth, 10^-4 organism dilution, read-out: M.I.C. (Minimum Inhibitory Concentration)
Excerpt: as §1, §2, §3, §4, §5, §6

E. coli 20665 = test: Minimum Inhibitory Concentration against E. coli 20665; assay type: cell-based; conditions: Escherichia coli, Mueller-Hinton Broth, 10^-3 organism dilution, read-out: M.I.C. (Minimum Inhibitory Concentration)
Excerpt: as §1, §2, §3, §4, §5, §6

P. rettgeri 9637 = test: Minimum Inhibitory Concentration against P. rettgeri 9637; assay type: cell-based; conditions: Providencia rettgeri, Mueller-Hinton Broth, 10^-4 organism dilution, read-out: M.I.C. (Minimum Inhibitory Concentration)
Excerpt: as §1, §2, §3, §4, §5, §6

P. aerug. 20653 = test: Minimum Inhibitory Concentration against P. aerug. 20653; assay type: cell-based; conditions: Mueller-Hinton Broth, 10^-4 organism dilution, read-out: M.I.C. (Minimum Inhibitory Concentration)
Excerpt: as §1, §2, §3, §4, §5, §6

S. aureus 9606 = test: Minimum Inhibitory Concentration against S. aureus 9606; assay type: cell-based; conditions: Staphylococcus aureus, Mueller-Hinton Broth, 10^-4 organism dilution, read-out: M.I.C. (Minimum Inhibitory Concentration)
Excerpt: as §1, §2, §3, §4, §5, §6

P. aerug. 21509 = test: Minimum Inhibitory Concentration against P. aerug. 21509; assay type: cell-based; conditions: Mueller-Hinton Broth, 10^-4 organism dilution, read-out: M.I.C. (Minimum Inhibitory Concentration)
Excerpt: as §1, §2, §3, §4, §5, §6

E. coli 21218 = test: Minimum Inhibitory Concentration against E. coli 21218; assay type: cell-based; conditions: Escherichia coli, Mueller-Hinton Broth, 10^-3 organism dilution, read-out: M.I.C. (Minimum Inhibitory Concentration)
Excerpt: as §1, §2, §3, §4, §5, §6

P. aerug. 9843A = test: Minimum Inhibitory Concentration against P. aerug. 9843A; assay type: cell-based; conditions: Mueller-Hinton Broth, 10^-4 organism dilution, read-out: M.I.C. (Minimum Inhibitory Concentration)
Excerpt: as §1, §2, §3, §4, §5, §6

S. marc. 20460 = test: Minimum Inhibitory Concentration against S. marc. 20460; assay type: cell-based; conditions: Mueller-Hinton Broth, 10^-4 organism dilution, read-out: M.I.C. (Minimum Inhibitory Concentration)
Excerpt: as §1, §2, §3, §4, §5, §6

P. rettgeri 21207 = test: Minimum Inhibitory Concentration against P. rettgeri 21207; assay type: cell-based; conditions: Providencia rettgeri, Mueller-Hinton Broth, 10^-3 organism dilution, read-out: M.I.C. (Minimum Inhibitory Concentration)
Excerpt: as §1, §2, §3, §4, §5, §6

E. cloacae 9656 = test: Minimum Inhibitory Concentration against E. cloacae 9656; assay type: cell-based; conditions: Enterobacter cloacae, Mueller-Hinton Broth, 10^-4 organism dilution, read-out: M.I.C. (Minimum Inhibitory Concentration)
Excerpt: as §1, §2, §3, §4, §5, §6

E. coli 20732 = test: Minimum Inhibitory Concentration against E. coli 20732; assay type: cell-based; conditions: Escherichia coli, Mueller-Hinton Broth, 10^-3 organism dilution, read-out: M.I.C. (Minimum Inhibitory Concentration)
Excerpt: as §1, §2, §3, §4, §5, §6

E. coli 20895 = test: Minimum Inhibitory Concentration against E. coli 20895; assay type: cell-based; conditions: Escherichia coli, Mueller-Hinton Broth, 10^-3 organism dilution, read-out: M.I.C. (Minimum Inhibitory Concentration)
Excerpt: as §1, §2, §3, §4, §5, §6

P. aerug. 20741 = test: Minimum Inhibitory Concentration against P. aerug. 20741; assay type: cell-based; conditions: Mueller-Hinton Broth, 10^-4 organism dilution, read-out: M.I.C. (Minimum Inhibitory Concentration)
Excerpt: as §1, §2, §3, §4, §5, §6

E. cloacae 21006 = test: Minimum Inhibitory Concentration against E. cloacae 21006; assay type: cell-based; conditions: Enterobacter cloacae, Mueller-Hinton Broth, 10^-3 organism dilution, read-out: M.I.C. (Minimum Inhibitory Concentration)
Excerpt: as §1, §2, §3, §4, §5, §6

[1] = background statement on positional isomers; cited from earlier work

MIC (S. aureus 9537): 2 µg/mL (≈ 4.27 µM) | MIC (P. aerug. 20601): > 125 µg/mL | MIC (P. stuartii 20894): 32 µg/mL (≈ 68.3 µM) | MIC (S. pneum. 9585): 125 µg/mL (≈ 267 µM) | MIC (E. coli 20683): > 125 µg/mL | MIC (S. aureus 20240): > 125 µg/mL | MIC (P. stuartii 21210): 4 µg/mL (≈ 8.54 µM) | MIC (E. cloacae 20364): > 125 µg/mL | MIC (P. mirab. 9900): 32 µg/mL (≈ 68.3 µM) | MIC (P. aerug. 20717): > 125 µg/mL | MIC (S. marc. 20019): 32 µg/mL (≈ 68.3 µM) | MIC (E. coli 9632): 8 µg/mL (≈ 17.1 µM) | MIC (S. pyogenes 9604): 125 µg/mL (≈ 267 µM) | MIC (K. pneum. 9977): 1 µg/mL (≈ 2.13 µM) | MIC (E. coli 20665): > 125 µg/mL | MIC (P. rettgeri 9637): 1 µg/mL (≈ 2.13 µM) | MIC (P. aerug. 20653): > 125 µg/mL | MIC (S. aureus 9606): 4 µg/mL (≈ 8.54 µM) | MIC (P. aerug. 21509): > 125 µg/mL | MIC (E. coli 21218): > 125 µg/mL | MIC (P. aerug. 9843A): > 125 µg/mL | MIC (S. marc. 20460): > 125 µg/mL | MIC (P. rettgeri 21207): 16 µg/mL (≈ 34.2 µM) | MIC (E. cloacae 9656): 8 µg/mL (≈ 17.1 µM) | MIC (E. coli 20732): 125 µg/mL (≈ 267 µM) | MIC (E. coli 20895): 8 µg/mL (≈ 17.1 µM) | MIC (P. aerug. 20741): > 125 µg/mL | MIC (E. cloacae 21006): > 125 µg/mL
Structure (SMILES): NC[C@H]1O[C@H](O[C@H]2C[C@@H](O[C@H]3O[C@H](CO)[C@@H](O)[C@H](N)[C@H]3O)[C@H](N)C[C@@H]2N)[C@H](O)[C@@H](O)[C@@H]1O [5-deoxykanamycin A, 5-Deoxykanamycin A]

Structure (SMILES): NC[C@H]1O[C@H](O[C@H]2[C@H](O)[C@@H](O)[C@H](N)C[C@@H]2N)[C@H](N)[C@@H](O)[C@@H]1O [neamine, 4-0-(2,6-dideoxy-2,6-diamino-α-D-glycopynanosyl) 2-deoxystreptamine]
antibiotic activity [1]: biologically active

Source: patent publication US4101556A, “Total synthesis of 2,5-dideoxystreptamines” (Bristol-Myers Company, priority 1977, dated 1978)
